{
  "source": "patent US10172905B1",
  "about": "“Treatment of protein degradation disorders” (President and Fellows of Harvard College, priority 2005, dated 2019)",
  "key": {"[1]": {"system": "MM patient plasma cells from BM (BMPCs)", "assay": "MTT cytotoxicity assay in MM patient plasma cells", "assay_type": "cell-based, human", "settings": "tubacin 5 μM with bortezomib, 24 h", "description": "Dex-sensitive (MM.1S) and resistant (MM.1R) human MM cell lines were kindly provided by Dr. Steven Rosen (Northwestern University, Chicago, Ill.). RPMI8226 and U266 human MM cell lines were obtained from American Type Culture Collection (Rockville, Md.). IL-6 dependent INA-6 cell line was kindly provided by Dr M Gramatzki (Erlangen, Germany). Melphalan-resistant RPMI-LR5 and doxorubicin-resistant RPMI-Dox40 cell lines were provided by Dr William Dalton (Lee Moffitt Cancer Center, Tampa, Fla.). All MM cell lines were cultured in RPMI-1640 containing 10% fetal bovine serum (FBS, Sigma Chemical Co., St. Louis, Mo.), […] L-glutamine, 100 U/ml penicillin, and 100 μg/ml streptomycin (GIBCO, Grand Island, N.Y.). INA-6 cells were maintained with addition of IL-6 (1 ng/ml). MM patient plasma cells were purified from bone marrow (BM) aspirates by negative selection using an antibody cocktail (RosetteSep Separation System, StemCell Technologies, Vancouver, Canada), as previously described (31). The purity of MM cells was >90%, as confirmed by flow cytometric analysis using anti-CD138 Ab (BD Pharmingen, San Diego, Calif.). […]\nThe inhibitory effect of bortezomib and/or tubacin on MM cell growth was assessed by measuring 3-(4,5-dimethylthiazol-2-yl)-2,5-diphenyl tetrazolium bromide (MTT) dye absorbance, as described previously (33). […]"}, "PBMCs": {"system": "PBMCs", "assay": "MTT cytotoxicity assay in normal PBMCs", "assay_type": "cell-based, human", "settings": "PBMCs from normal volunteers, tubacin 2.5-20 μM, 48 h"}, "[2]": {"molecular_target": "T1, interaction of HDAC6 with dynein (Homo sapiens, UniProt Q9UBN7)", "T1 sequence (Q9UBN7 1-1215)": "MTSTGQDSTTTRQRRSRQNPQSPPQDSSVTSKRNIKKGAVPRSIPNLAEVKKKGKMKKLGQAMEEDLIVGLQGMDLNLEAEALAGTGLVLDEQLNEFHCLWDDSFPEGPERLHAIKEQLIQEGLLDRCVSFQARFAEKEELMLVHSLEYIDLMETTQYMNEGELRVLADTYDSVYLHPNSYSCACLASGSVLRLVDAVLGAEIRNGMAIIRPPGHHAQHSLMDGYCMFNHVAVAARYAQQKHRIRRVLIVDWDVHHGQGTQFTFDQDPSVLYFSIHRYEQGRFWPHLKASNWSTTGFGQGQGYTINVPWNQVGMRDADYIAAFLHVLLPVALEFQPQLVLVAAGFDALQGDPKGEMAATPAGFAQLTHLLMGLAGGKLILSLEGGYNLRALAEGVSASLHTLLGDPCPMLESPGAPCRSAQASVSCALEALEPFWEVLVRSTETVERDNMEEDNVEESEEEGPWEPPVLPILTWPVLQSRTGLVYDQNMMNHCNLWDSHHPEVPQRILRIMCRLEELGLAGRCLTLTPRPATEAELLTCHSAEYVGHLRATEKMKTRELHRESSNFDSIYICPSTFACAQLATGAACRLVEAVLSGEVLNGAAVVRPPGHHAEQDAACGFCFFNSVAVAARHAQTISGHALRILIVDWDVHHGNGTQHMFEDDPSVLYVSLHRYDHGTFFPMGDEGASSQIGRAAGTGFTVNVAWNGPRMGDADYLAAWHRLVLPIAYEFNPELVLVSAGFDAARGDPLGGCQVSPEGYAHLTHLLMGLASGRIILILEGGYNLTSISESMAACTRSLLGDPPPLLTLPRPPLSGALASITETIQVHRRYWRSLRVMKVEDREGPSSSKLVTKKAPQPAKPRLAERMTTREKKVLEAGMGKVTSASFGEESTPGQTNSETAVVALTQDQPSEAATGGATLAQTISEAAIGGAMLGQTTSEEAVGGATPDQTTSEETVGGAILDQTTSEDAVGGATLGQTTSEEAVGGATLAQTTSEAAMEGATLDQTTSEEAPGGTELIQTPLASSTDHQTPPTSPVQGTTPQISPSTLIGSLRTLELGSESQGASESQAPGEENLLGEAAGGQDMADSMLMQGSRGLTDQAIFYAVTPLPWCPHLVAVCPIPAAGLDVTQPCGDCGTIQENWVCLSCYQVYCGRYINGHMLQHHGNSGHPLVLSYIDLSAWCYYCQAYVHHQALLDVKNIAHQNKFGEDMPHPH", "assay": "Co-immunoprecipitation of HDAC6 with dynein or ubiquitinated proteins", "assay_type": "cell-based", "settings": "tubacin 2.5 and 5 μM, 8 h, MM.1S cells", "method": "(§1) Cells cultured with tubacin and/or bortezomib were harvested; washed, and lysed using lysis buffer: 50 mM Tris-HCl (pH 7.4), 150 mM NaCl, 1% NP-40, 5 mM EDTA, 5 mM NaF, 1 mM Na3VO4, 1 mM PMSF, 5 μg/ml leupeptine, and 5 μg/ml aprotinin. Whole cell lysates were subjected to SDS-PAGE, transferred to nitrocellulose membrane (Bio-Rad Laboratories, Hercules, Calif.), and immunoblotted with specific Abs (31). Western blotting was done using anti-HDAC6, acetylated lysine, acetylated histone H3, acetylated histone H4, ubiquitin (Ub), phospho-SAPK (JNK), caspase-8 caspase-9, caspase-3, and PARP Abs (Cell Signaling, Beverly, Mass.); with anti-α-tubulin Ab (Santa Cruz Biotechnology, Santa Cruz, Calif.); as well as with anti-dynein Ab (Sigma, Saint Louis, Mo.). For immunoprecipitation, whole cell lysates were incubated with anti-Ub or dynein Abs overnight at 4° C., and then incubated with protein A/G PLUS-Agarose (Santa Cruz Biotechnology) for 2 h at 4° C., as in our prior study (31). Immunoprecipitates were then subjected to Western blotting for detection of HDAC6 and dynein."}, "[3]": {"system": "JNK phosphorylation and caspase/PARP cleavage", "assay": "Western blotting for p21Cip1, p-JNK, caspases and PARP", "assay_type": "cell-based, human", "method": "MM cells were cultured with Velcade and/or Tubacin; harvested; washed; and lysed using lysis buffer: 50 mM Tris-HCl (pH 7.4), 150 mM NaCl, 1% NP-40, 5 mM EDTA, 5 mM NaF, 2 mM Na3VO4, 1 mM PMSF, 5 μg/ml leupeptine, and 5 μg/ml aprotinin. Cell lysates were subjected to SDS-PAGE, transferred to PVDF membrane (Bio-Rad Laboratories, Hercules, Calif.), and immunoblotted with Abs against specific proteins.\nas §1"}, "[4]": {"system": "rat astrocytes and striatal neurons", "assay": "Russell body formation in rat astrocytes and striatal neurons", "assay_type": "cell-based", "settings": "previous experiments, comparable concentrations"}},
  "note": "“Also recorded” adds a separate entry of the source.",
  "data": [
    {"compound": "O=C(CCCCCCC(=O)Nc1ccc([C@H]2O[C@@H](CSc3nc(-c4ccccc4)c(-c4ccccc4)o3)C[C@@H](c3ccc(CO)cc3)O2)cc1)NO", "note": "[tubacin]", "values": [
      {"measurement": "effect of tubacin on bortezomib (Velcade)-induced cytotoxicity in patient MM cells", "setting": "[1]", "value": "markedly augmented by tubacin; also recorded: significantly (p<0.01) augments cytotoxicity triggered by Velcade; also recorded: synergistically enhances bortezomib-induced cytotoxicity"},
      {"measurement": "cytotoxicity of tubacin in PBMCs", "setting": "PBMCs", "value": "no cytotoxicity; also recorded: No adverse effect"},
      {"measurement": "co-immunoprecipitation between HDAC6 and ubiquitinated proteins", "setting": "[2]", "value": "unaffected"},
      {"measurement": "co-immunoprecipitation of HDAC6 with dynein", "setting": "[2]", "value": "markedly inhibited in a dose-dependent fashion; also recorded: inhibits binding of HDAC6 with dynein"},
      {"measurement": "phosphorylation of JNK and caspase/PARP cleavage", "setting": "[3]; MM.1S cells, tubacin 5 μM and/or bortezomib 5 nM, 24 h", "value": "does not trigger phosphorylation of JNK or caspase/PRAP cleavage"},
      {"measurement": "induction of p21Cip1 induced by bortezomib", "setting": "[3]; tubacin 5 μM + bortezomib 5 nM, MM.1S, 24 h", "value": "inhibits induction of p21^Cip1 induced by bortezomib"},
      {"measurement": "induction of p21Cip1", "setting": "[3]; tubacin 5 μM alone, MM.1S, 24 h", "value": "does not trigger induction of p21^Cip1"},
      {"measurement": "caspase-8/PARP cleavage", "setting": "[3]; tubacin 10 μM, 0-24 h, MM.1S and RPMI8226 cells", "value": "time-dependent caspase-8/PARP cleavage is induced; also recorded: induces cytotoxicity via activation of caspases"},
      {"measurement": "Russell body formation", "setting": "[4]", "value": "features suggestive of Russell body formation"}
    ]}
  ]
}
